According to publication PMC8443589, “Modelling human liver fibrosis in the context of non-alcoholic steatohepatitis using a microphysiological system” (Communications Biology, 2021):

Test system: liver MPS NASH model (PHH, KC and HSC co-cultures)
Experiment: Cue study: RNAseq transcriptomic profile, enriched pathways
Format: cell-based, human
Conditions: GO term enrichment and cluster analysis, 14 days
Description: Fig. 4 Systems biology interrogation of liver MPS NASH model to determine physiologically relevant cues that promote transcriptional changes to mimic advanced NASH disease state. […]
The MPS LC12 plates consists of 12 individual bioreactors that contain pneumatically driven micro-pumps to recirculate cell culture medium through a collagen-coated scaffold. […] Microtissues were then cultured in either HEP-Lean or HEP-Fat medium, both media’s are proprietary to CN Bio Innovations Ltd. The HEP-Fat medium is a derivative of the HEP-LEAN medium and contains a mixture of saturated and unsaturated FFAs, as well as physiologically relevant quantities of insulin and sugars. […]
Prior to RNA-seq integrity and quantity of RNA were assessed by Fragment Analyzer high sensitivity RNA kit (Agilent Technologies, USA). […] Quality and quantity of libraries were assessed by Fragment Analyzer standard sensitivity NGS kit (Agilent Technologies, USA). […] The sample pools were quantified with a Qubit Fluorometer (ThermoFisher Scientific, USA) using the dsDNA HS kit (ThermoFisher Scientific, USA), further diluted and sequenced to >13 M paired reads/sample on NextSeq500 (Illumina, USA) with PE 75 base pair (bp) read length setting.
The sequencing data were demultiplexed using Illumina bcl2fastq2-v2.16. The quality of the reads was assessed using FastQC (www.bioinformatics.babraham.ac.uk/projects/fastqc). […]

TGFβ: recombinant TGF beta 1 protein (Abcam), 1 ng/ml cue
enriched pathways / gene clusters induced: induced a wide range of clusters associated with collagen formation and matrix reorganisation
